# In US5494898A, “Peptide skeletal muscle relaxants” (priority 1994, dated 1996):
# Square brackets hold non-standard residues; d marks the D form. Peptide text beside a SMILES is read from it. * marks the point of attachment. dLys(Me3) = C[N+](C)(C)CCCC[C@@H](N)C(=O)O; Boc = CC(C)(C)OC(=O)*
# Key:
# neuromuscular junction [1] = assay: Rabbit paw twitch analysis; type: in vivo; settings: for ED90 (dose required to depress twitch tension to 10% of control): anesthetized male New Zealand white rabbits, i.v. marginal ear vein
# Source text: In a large series of similar relaxants, the rabbit dose is typically 125% of that in mice. The mechanism of action was also confirmed in this test by observing train-of-four and tetanus fade, post-tetanic potentiation of single twitches and administration of the anticholinesterase drug neostigmine which reverses the relaxation. Reversibility, rapid onset and short duration are important factors to the anesthesiologist.
# The following is a brief description of the methodologies used in rabbits to describe neuromuscular blocking activity of the subject compounds. A more detailed description of these methods is presented in "Microcomputer Use in Measuring Onset, Duration, and Recovery from Non-Depolarizing Skeletal Muscle Relaxants in Rabbits", P.D. Thut et al., Drug development Research 5:182, 1985.
# Male New Zealand white rabbits weighing between 2.5 and 3.4 kg were anesthetized with pentobarbital (30 mg/kg) and placed on their backs upon a 40° C. water filled temperature regulation pad. Following tracheostomy, the lungs were mechanically ventilated at 28 breaths per minute with room air, using an open system delivering 200 ml/stroke. This ventilation maintained pCO2 at 38 […] and pO2 at 85 mmHg. Direct arterial blood pressure was measured from the right common carotid artery. The test compounds were administered through a cannula placed in the marginal ear vein. Each foreleg was taped to a cushioned plate held in a femur clamp attached to the spinal board rack. The left central digit of each paw was connected to a force displacement transducer for measurement of muscle tension. Nerve stimulation was provided by pairs of pin electrodes placed on both sides of the ulnar nerve at the elbow of both forearms. The right ulnar nerve was stimulated at 1 Hz, 1 pps for 0.5 msec duration. The left ulnar nerve was similarly stimulated, every 15 seconds, with addition of interspersed trains-of-four and tetanizing stimuli. The parameters reported in Table II are: potency (ED90), which is the dose required to depress twitch tension to 10% of its control value; onset (T85%), which is the time from injection until 85% of the maximal drug effect is achieved; duration, which is the time from injection until the train-of-four has recovered to 75%; blood pressure (BP), which is the percentage change of pre-drug blood pressure; and heart rate (HR), which is the percentage change from pre-drug heart rate.
# neuromuscular junction [2] = assay: Mouse inclined screen grip strength test (neuromuscular junction blocking activity); type: in vivo; settings: mice on screen inclined 45°; dose required to inhibit grip strength
# Method: The first step, in mice, establishes a preliminary estimate of the potency and efficacy of the compounds. The animals were placed on a screen, inclined 45° to the horizontal. Effective doses caused the mice to lose their grip and slide down the inclined screen. The dose in mg/kg of body weight required to inhibit grip strength in 100% of the mice tested in a dosage group is reported.
SMILES,"HR (% change from pre-drug heart rate) (neuromuscular junction [1]; rabbit, equi-efficacious dose)","BP (% change of pre-drug blood pressure) (neuromuscular junction [1]; rabbit, equi-efficacious dose, carotid arterial pressure)","Neuromuscular Junction Blocking Activity (ED90), Mouse (neuromuscular junction [2])",ED90 (dose required to depress twitch tension to 10% of control) (neuromuscular junction [1]),"T85% onset (time from injection until 85% of maximal drug effect) (neuromuscular junction [1]; rabbit, equi-efficacious dose)","Duration (time from injection until train-of-four recovered to 75%) (neuromuscular junction [1]; rabbit, equi-efficacious dose)"
COC(=O)[C@@H](CCCC[N+](C)(C)C)NC(=O)[C@@H](Cc1ccccc1)NC(=O)[C@@H](CCCC[N+](C)(C)C)NC(=O)OC(C)(C)C [Compound B] (Boc-[dLys(Me3)]-[dF]-[dLys(Me3)]-OMe),8.79 % change,-18.83 % change,–,–,–,–
COc1ccc(CC2c3cc(OC)c(OC)cc3CC[N+]2(C)CCC(=O)OCCCCCOC(=O)CC[N+]2(C)CCc3cc(OC)c(OC)cc3C2Cc2ccc(OC)c(OC)c2)cc1OC (stereo not drawn) [atracurium],–,–,0.63 mg/kg,0.05 mg/kg,126.90 s,–
CC(=O)O[C@H]1C[C@@H]2CC[C@@H]3[C@H](CC[C@@]4(C)[C@H]3C[C@H]([N+]3(C)CCCCC3)[C@@H]4OC(C)=O)[C@@]2(C)C[C@@H]1[N+]1(C)CCCCC1 [pancuronium],–,–,–,0.02 mg/kg,147.50 s,35.50 min
CC(=O)O[C@H]1C[C@@H]2CC[C@@H]3[C@H](CC[C@@]4(C)[C@H]3C[C@H]([N+]3(C)CCCCC3)[C@@H]4OC(C)=O)[C@@]2(C)C[C@@H]1N1CCCCC1 [vecuronium],-9.90 % change,–,0.03 mg/kg,0.02 mg/kg,97.30 s,–
